Measured values from US20070117743A1, “New antitumoral compounds” (priority 2003, published 2007).
Where a SMILES comes first, the peptide text is derived from it. Bridges are numbered along the chain shown (N, C = ends). [ ]: non-standard residue; d: D form. The star is where a group is joined. d(aIle) = CC[C@H](C)[C@@H](N)C(=O)O; d(aThr) = C[C@@H](O)[C@@H](N)C(=O)O; Hexanoyl(5-Me) = CC(C)CCCC(=O)*; Orn = NCCC[C@H](N)C(=O)O; Dhb = C/C=C(\N)C(=O)O

Columns and labels:
Type in all cases: cell-based, human
LoVo = assay: SRB colorimetric assay of cell growth and viability, LoVo; settings: 48 hours exposure; for CC50: read-out: LC50 LOVO
DU-145 = assay: SRB colorimetric assay of cell growth and viability, DU-145; settings: 48 hours exposure
IGROV-ET = assay: SRB colorimetric assay of cell growth and viability, IGROV-ET; settings: 48 hours exposure; for CC50: read-out: LC50 IGROV-ET
K-562 = assay: SRB colorimetric assay of cell growth and viability, K-562; settings: 48 hours exposure; for CC50: read-out: LC50 K-562
LNCaP = assay: SRB colorimetric assay of cell growth and viability, LNCaP; settings: 48 hours exposure; for GI50: read-out: GI50 LN-caP; for CC50: read-out: LC50 LN-caP
HeLa-APL = assay: SRB colorimetric assay of cell growth and viability, HeLa-APL; settings: 48 hours exposure; for CC50: read-out: LC50 HELA-APL
SK-MEL-28 = assay: SRB colorimetric assay of cell growth and viability, SK-MEL-28; settings: 48 hours exposure; for CC50: read-out: LC50 MEL-28
HT-29 = assay: SRB colorimetric assay of cell growth and viability, HT-29; settings: 48 hours exposure; for GI50: read-out: GI50 HT-29; for CC50: read-out: LC50 HT-29
HeLa = assay: SRB colorimetric assay of cell growth and viability, HeLa; settings: 48 hours exposure; for CC50: read-out: LC50 HELA
PANC-1 = assay: SRB colorimetric assay of cell growth and viability, PANC-1; settings: 48 hours exposure; for CC50: read-out: LC50 PANC-1
A-549 = assay: SRB colorimetric assay of cell growth and viability, A-549; settings: 48 hours exposure; for GI50: read-out: GI50 A-549; for CC50: read-out: LC50 A-549
SK-BR-3 = assay: SRB colorimetric assay of cell growth and viability, SK-BR-3; settings: 48 hours exposure
IGROV-1 = assay: SRB colorimetric assay of cell growth and viability, IGROV-1; settings: 48 hours exposure

SMILES	GI50 (LoVo) [µM]	TGI LOVO (LoVo) [Molar]	CC50 (LoVo) [µM]	GI50 (DU-145) [µM]	LC50 (concentration causing 50% net cell kill) (DU-145) [µM]	TGI DU-145 (DU-145) [Molar]	GI50 (IGROV-ET) [µM]	TGI IGROV-ET (IGROV-ET) [Molar]	CC50 (IGROV-ET) [µM]	GI50 (K-562) [µM]	TGI K-562 (K-562) [Molar]	CC50 (K-562) [µM]	TGI LN-caP (LNCaP) [Molar]	GI50 (LNCaP) [µM]	CC50 (LNCaP) [µM]	GI50 (HeLa-APL) [µM]	TGI HELA-APL (HeLa-APL) [Molar]	CC50 (HeLa-APL) [µM]	GI50 (SK-MEL-28) [µM]	TGI MEL-28 (SK-MEL-28) [Molar]	also measured
C/C=C1\NC(=O)[C@H](Cc2ccccc2)NC(=O)[C@@H](C(C)C)NC(=O)[C@@H]([C@@H](C)CC)NC(=O)[C@H](NC(=O)[C@H](NC(=O)[C@H](CCCN)NC(=O)[C@H]2CCCN2C(=O)[C@H](NC(=O)[C@@H]2CCCN2C(=O)[C@@H](NC(=O)[C@H](NC(=O)CCCC(C)C)C(C)C)[C@@H](C)O)C(C)C)[C@@H](C)CC)[C@@H](C)OC(=O)[C@H](C(C)C)NC1=O [Compound 47, [Pro^11]-KF] ({Hexanoyl(5-Me)}-[dV]TP[dV][dP][Orn][d(aIle)][d(aThr)][d(aIle)][dV]F[Dhb]V; ester 8-C)	5.85	6.78E−06	6.78	6.78	6.78	6.78E−06	6.78	6.78E−06	6.78	6.78	6.78E−06	6.78	6.78E−06	3.45	6.78	6.78	6.78E−06	6.78	6.78	6.78E−06	CC50 (SK-MEL-28): 6.78 µM; TGI HT-29 (HT-29): 6.78E−06 Molar; GI50 (HT-29): 6.78 µM; CC50 (HT-29): 6.78 µM; GI50 (HeLa): 6.78 µM; TGI HELA (HeLa): 6.78E−06 Molar; CC50 (HeLa): 6.78 µM; GI50 (PANC-1): 5.63 µM; TGI PANC-1 (PANC-1): 6.78E−06 Molar; CC50 (PANC-1): 6.78 µM; TGI A-549 (A-549): 6.78E−06 Molar; GI50 (A-549): 6.78 µM; CC50 (A-549): 6.78 µM; GI50 (SK-BR-3): 6.78 µM; LC50 (SK-BR-3): 6.78 µM; TGI SK-BR-3 (SK-BR-3): 6.78E−06 Molar; GI50 (IGROV-1): 6.78 µM; LC50 (concentration causing 50% net cell killing) (IGROV-1): 6.78 µM; TGI IGROV (IGROV-1): 6.78E−06 Molar
C/C=C1\NC(=O)[C@H](Cc2ccccc2)NC(=O)[C@@H](C(C)C)NC(=O)[C@@H]([C@@H](C)CC)NC(=O)[C@H](NC(=O)[C@H](NC(=O)[C@H](CCCN)NC(=O)[C@H]2CCCN2C(=O)[C@H](NC(=O)[C@@H](NC(=O)[C@@H](NC(=O)[C@H](NC(=O)CCCNC(=N)N)C(C)C)[C@@H](C)O)C(C)C)C(C)C)[C@@H](C)CC)[C@@H](C)OC(=O)[C@H](C(C)C)NC1=O [Compound 29, [4-GuBut^14]-KF]	5.45	6.70E−06	6.7	6.7	6.7	6.70E−06	6.7	6.70E−06	6.7	6.7	6.70E−06	6.7	6.70E−06	3.91	6.7	6.7	6.70E−06	6.7	6.7	6.70E−06	CC50 (SK-MEL-28): 6.7 µM; TGI HT-29 (HT-29): 6.70E−06 Molar; GI50 (HT-29): 6.7 µM; CC50 (HT-29): 6.7 µM; GI50 (HeLa): 6.7 µM; TGI HELA (HeLa): 6.70E−06 Molar; CC50 (HeLa): 6.7 µM; GI50 (PANC-1): 6.7 µM; TGI PANC-1 (PANC-1): 6.70E−06 Molar; CC50 (PANC-1): 6.7 µM; TGI A-549 (A-549): 6.70E−06 Molar; GI50 (A-549): 6.7 µM; CC50 (A-549): 6.7 µM; GI50 (SK-BR-3): 6.7 µM; LC50 (SK-BR-3): 6.7 µM; TGI SK-BR-3 (SK-BR-3): 6.70E−06 Molar; GI50 (IGROV-1): 6.7 µM; LC50 (concentration causing 50% net cell killing) (IGROV-1): 6.7 µM; TGI IGROV (IGROV-1): 6.70E−06 Molar
